These are literature values, as cited in US6436936B1, “Methods and compositions for treating disorders, using optically pure (+) zopiclone” (Sepracor Inc., priority 1991, dated 2002).

The test system of the data set is mice. Conditions: reference agents, 3 per group, ten parameters scored, total score <40 of 60 denotes behavioral depression.
Turning to `CN1C(=O)CN=C(c2ccccc2)c2cc(Cl)ccc21` [diazepam], the ED100 is reported as 50 mg/kg. In the case of `CCC1(c2ccccc2)CCC(=O)NC1=O` (stereo not drawn) [glutethimide], the ED100 is reported as 300 mg/kg.

With `O=C(CCCN1CCC(O)(c2ccc(Cl)cc2)CC1)c1ccc(F)cc1` [haloperidol], the ED100 is on record as 10 mg/kg. Regarding `CCCC(C)(COC(N)=O)COC(N)=O` [meprobamate], the ED100 was 300 mg/kg. Consider `CCCC(C)C1(CC)C(=O)NC(=O)NC1=O` (stereo not drawn) [pentobarbital], for which the ED100 is recorded as 100 mg/kg.

As for `COC(=O)[C@H]1[C@H]2C[C@@H]3c4[nH]c5cc(OC)ccc5c4CCN3C[C@H]2C[C@@H](OC(=O)c2cc(OC)c(OC)c(OC)c2)[C@@H]1OC` [reserpine], the ED100 was 50 mg/kg.
